Data on nine molecules can be found in publication PMC3344862, “Structural and Mutational Studies on Substrate Specificity and Catalysis of Salmonella typhimurium D-Cysteine Desulfhydrase” (PLoS ONE, 2012).

Data set [1] deals with T1, StDCyD (Salmonella enterica, UniProt Q8ZNT7).
T1 construct: gene dcyD; 36 kDa, dimer in solution; PLP on Lys51
T1 sequence (Q8ZNT7 1-328): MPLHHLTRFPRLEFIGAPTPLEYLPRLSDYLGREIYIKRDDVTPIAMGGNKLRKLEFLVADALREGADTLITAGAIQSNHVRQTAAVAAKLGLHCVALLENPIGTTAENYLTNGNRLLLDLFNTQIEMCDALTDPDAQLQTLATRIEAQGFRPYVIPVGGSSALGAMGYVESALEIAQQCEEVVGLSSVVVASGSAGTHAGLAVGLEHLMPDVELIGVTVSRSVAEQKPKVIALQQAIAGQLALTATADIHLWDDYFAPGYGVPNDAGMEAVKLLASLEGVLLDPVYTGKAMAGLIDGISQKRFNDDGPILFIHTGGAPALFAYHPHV
The experiment in a line: X-ray crystallography; absorbance maximum […] nm. The class given is binding. The conditions noted are these: covalent; Schiff base with Lys51.

Data set [2] concerns the target T1, StDCyD. The experiment in a line: X-ray crystallography, co-crystallization with DCS or LCS. In kind it is binding. The settings on record: active site, not covalently linked to Lys51; formed from PLP by DCS (4D9B) or LCS (4D9C).
The target of data set [3] is T1, StDCyD. The experiment in a line: X-ray crystallography, co-crystallization. In kind it is binding.
In data set [4] the target is T1, StDCyD. The experiment in a line: thermal melting. In kind it is binding. The settings on record: 10 mM pyruvate; Tm without and with ligand; data not shown.
Data set [5] concerns the target T1, StDCyD. The experiment in a line: X-ray crystallography, crystals soaked with D-Cys or βCDA. In kind it is binding. The conditions noted are these: second site 4.0-6.0 Å from the active site (Arg222, Ser221); formed from D-Cys (4D8W) or βCDA (4D92).
Data set [6] concerns the target T1, StDCyD. The experiment in a line: X-ray crystallography, crystal soak; UV-visible spectra. In kind it is binding. The conditions noted are these: covalent; external aldimine with PLP; 10 mM, about 2 min soak.
Data set [7] deals with the molecule itself. The experiment in a line: SEC; analytical gel filtration of the purified protein. (In general: In gel filtration, larger molecules generally elute earlier.)

As to `Cc1ncc(COP(=O)(O)O)c(C=O)c1O` [PLP], the “X-ray crystallography; absorbance maximum 417 nm” value at StDCyD [1] is recorded as “PLP is bound by a Schiff base linkage to Lys51”.

For the molecule `Cc1ncc(COP(=O)(O)O)c(CN)c1O` [PMP], the “X-ray crystallography, co-crystallization with DCS or LCS” value on StDCyD [2] is recorded as “PMP is not covalently linked to ε-amino group of Lys51”. `NC1(C(=O)O)CC1` [ACC]: the “X-ray crystallography, co-crystallization” value on StDCyD [3] (covalent, external aldimine with PLP, not a substrate) was “StDCyD cocrystallized with ACC (PDB code: 4D96) revealed that the ligand binds as an external aldimine”. As for `N[C@@H](CO)C(=O)O` [L-Ser], the “X-ray crystallography, co-crystallization” value on StDCyD [3] (active site, non-covalent, internal aldimine intact, not a substrate) is “Structures of StDCyD-D-Ser (PDB code: 4D97) and StDCyD-L-Ser (PDB code: 4D99) complexes”. With `N[C@H](CO)C(=O)O` [D-Ser], on StDCyD [3] (active site, non-covalent, internal aldimine intact, poor substrate), the “X-ray crystallography, co-crystallization” value is “Structures of StDCyD-D-Ser (PDB code: 4D97) and StDCyD-L-Ser (PDB code: 4D99) complexes”.

`CC(=O)C(=O)O` [pyruvate]: the Tm with ligand on StDCyD [4] was in the range of 80 to 85 °C. Besides, the “X-ray crystallography, crystals soaked with D-Cys or βCDA” value on StDCyD [5] is “The modeled pyruvate is held by hydrogen bonding with Arg222 and Ser221”. On to `N[C@@H]1CONC1=O` [DCS], for which the “X-ray crystallography, crystal soak; UV-visible spectra” value on StDCyD [6] is listed as “Electron density observed at the active site was consistent with external aldimines of DCS or LCS”. Same read-out and setting: for `N[C@H]1CONC1=O` [LCS] the value was “Electron density observed at the active site was consistent with external aldimines of DCS or LCS”.

B1: Salmonella typhimurium D-cysteine desulfhydrase (enzyme, UniProt Q8ZNT7 1-328, looked up)
chain: T1 sequence (Q8ZNT7 1-328)
modifications: PLP bound by a Schiff base linkage to Lys51
notes: residues 1-328; Cloned in pRSET C; no cleavage of the tag is described; Small domain residues 48-161, large domain residues 1-47 and 162-328; also called StDCyD; DCyD; source: E. coli BL21 (DE3) Rosetta, purified (Ni-NTA, size exclusion chromatography)
On to B1, for which, in data set [7], the “stoichiometry N” value was determined as 2.

Broadly, the stoichiometry N is a count of units in the complex or per binding partner.
